Data published in patent publication US20060069132A1, “Azolecarboxamide herbicides” (priority 2004, published 2006).

Columns and labels:
Test in all cases: Test E pre-/postemergence herbicide test
annual bluegrass = format: in vivo, Poa annua
Method in brief: (§1)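 Seeds were planted and treated preemergence with test chemicals in a non-phytotoxic solvent mixture containing surfactant; plants at 2 to 18 cm (1- to 4-leaf stage) received postemergence applications of the same formulation. After 12 to 14 days in a greenhouse, injury was visually rated against untreated controls on a 0 to 100 scale.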

common sowthistle = format: in vivo, Sonchus oleraceous
Method in brief: as §1

dallisgrass = format: in vivo, Paspalum dilatatum
Method in brief: as §1

common groundsel = format: in vivo, Senecio vulgaris
Source text: (§2) Seeds of plant species selected from bipinnate beggarticks (Bidens bipinnata L.), hairy beggarticks (Bidens radiata Thuill.), bermudagrass (Cynodon dactylon (L.) Pers.), Surinam grass (Urochloa decumbens (Staph) R. D. Webster, previously named Brachiaria decumbens Stapf), large crabgrass (Digitaria sanguinalis (L.) Scop.), green foxtail (Setaria viridis (L.) P. Beauv.), goosegrass (Eleusine indica (L.) Gaertn.), johnsongrass (Sorghum halepense (L.) Pers.), kochia (Kochia scoparia (L.) Schrad.), pitted morningglory (Ipomoea lacunosa L.), purple nutsedge (Cyperus rotundus L.), common ragweed (Ambrosia elatior L.), mustard (Brassica nigra (L.) W. D. J. Koch), guineagrass (Panicum maximum Jacq.), dallisgrass (Paspalum dilatatum Poir.), barnyardgrass (Echinochloa crus-galli (L). P. Beauv.), southern sandbur (Cenchrus echinatus L.), common sowthistle (Sonchus oleraceous L.), prickly sida (Sida spinosa L.), Italian ryegrass (Lolium multiflorum Lam.), common purslane (Portulaca oleracea L.), broadleaf signalgrass (Brachiaria platyphylla (Griseb.) Nash), common groundsel (Senecio vulgaris L.), common chickweed (Stellaria media (L.) Vill/Cyr.), tropical spiderwort (Commelina benghalensis L.), annual bluegrass (Poa annua L.), downy bromegrass (Bromus tectorum L.), itchgrass (Rottboellia cochinchinensis (L.) L.f.), quackgrass (Elytrigia repens (L.) Nevski), Canada horseweed (Erigeron Canadensis L.), field bindweed (Convolvulus arvensis L.), spotted spurge (Euphorbia maculata L.), common mallow (Malva sylvestris (=s silvestris) L.), and Russian thistle (Salsola kali L. ssp. Ruthenica (Iljin) Soo) were planted and treated preemergence with test chemicals formulated in a non-phytotoxic solvent mixture which included a surfactant.
(§3) At the same time, plants selected from these weed species were treated with postemergence applications of some of the test chemicals formulated in the same manner. Plants ranged in height from 2 to 18 cm (1- to 4-leaf stage) for postemergence treatments. Treated plants and controls were maintained in a greenhouse for 12 to 14 days, after which time all species were compared to controls and visually evaluated. Plant response ratings, summarized in Table E, are based on a scale of 0 to 100 where 0 is no effect and 100 is complete control. A dash (-) response means no test result.

common ragweed = format: in vivo, Ambrosia elatior
Method in brief: as §1

quackgrass = format: in vivo, Elytrigia repens
Method in brief: as §1

itchgrass = format: in vivo, Rottboellia cochinchinensis
Method in brief: as §1

common purslane = format: in vivo, Portulaca oleracea; conditions: Preemergence, scale 0 (no effect) to 100 (complete control)
Source text: as §2, §3

field bindweed = format: in vivo, Convolvulus arvensis
Method in brief: as §1

large crabgrass = format: in vivo, Digitaria sanguinalis
Method in brief: as §1

[1] = Postemergence, 250 g ai/ha, scale 0 to 100
[2] = Preemergence, 62 g ai/ha, scale 0 to 100
[3] = Preemergence, 125 g ai/ha, scale 0 (no effect) to 100 (complete control)
[4] = Preemergence, 250 g ai/ha, scale 0 (no effect) to 100 (complete control)
[5] = Preemergence, 500 g ai/ha, scale 0 (no effect) to 100 (complete control)
[6] = postemergence, 125 g ai/ha, scale 0 to 100
[7] = postemergence, 62 g ai/ha, scale 0 to 100

## CCNC(=O)c1ccc(F)c(NC(=O)c2cc(C(C)(C)C)nn2CC)c1 [Compound 2, 3-(1,1-dimethylethyl)-1-ethyl-N-[5-[(ethylamino)carbonyl]-2-fluorophenyl]-1H-pyrazole-5-carboxamide]
Annual bluegrass; [1]
  Plant response rating, Bluegrass: 100
Annual bluegrass; [2]
  Plant response rating, Bluegrass: 95
Annual bluegrass; [3]
  Plant response rating, Bluegrass: 100
Annual bluegrass; [4]
  Plant response rating, Bluegrass: 100
Annual bluegrass; [5]
  Plant response rating, Bluegrass: 100
Annual bluegrass; [6]
  Plant response rating, Bluegrass: 98
Annual bluegrass; [7]
  Plant response rating, Bluegrass: 90
Common sowthistle; [1]
  Plant response rating, Sowthistle: 95
Common sowthistle; [2]
  Plant response rating, Sowthistle: 90
Common sowthistle; [3]
  Plant response rating, Sowthistle: 95
Common sowthistle; [4]
  Plant response rating, Sowthistle: 95
Common sowthistle; [5]
  Plant response rating, Sowthistle: 95
Common sowthistle; [6]
  Plant response rating, Sowthistle: 90
Common sowthistle; [7]
  Plant response rating, Sowthistle: 90
dallisgrass; [1]
  Plant response rating, Dallisgrass: 90
dallisgrass; [2]
  Plant response rating, Dallisgrass: 60
dallisgrass; [3]
  Plant response rating, Dallisgrass: 90
dallisgrass; [4]
  Plant response rating, Dallisgrass: 95
dallisgrass; [5]
  Plant response rating, Dallisgrass: 95
dallisgrass; [6]
  Plant response rating, Dallisgrass: 80
dallisgrass; [7]
  Plant response rating, Dallisgrass: 75
Common groundsel; [1]
  Plant response rating, Groundsel: 80
Common groundsel; [2]
  Plant response rating, Groundsel: 60
Common groundsel; [3]
  Plant response rating, Groundsel: 70
Common groundsel; [4]
  Plant response rating, Groundsel: 100
Common groundsel; [5]
  Plant response rating, Groundsel: 100
Common ragweed; [2]
  Plant response rating, Ragweed: 20
Common ragweed; [3]
  Plant response rating, Ragweed: 60
Common ragweed; [4]
  Plant response rating, Ragweed: 70
Common ragweed; [5]
  Plant response rating, Ragweed: 85
Common ragweed; [6]
  Plant response rating, Ragweed: 80
Common ragweed; [7]
  Plant response rating, Ragweed: 60
quackgrass; [1]
  Plant response rating, Quackgrass: 95
quackgrass; [2]
  Plant response rating, Quackgrass: 30
quackgrass; [3]
  Plant response rating, Quackgrass: 60
quackgrass; [4]
  Plant response rating, Quackgrass: 70
quackgrass; [5]
  Plant response rating, Quackgrass: 80
quackgrass; [6]
  Plant response rating, Quackgrass: 90
quackgrass; [7]
  Plant response rating, Quackgrass: 70
itchgrass; [1]
  Plant response rating, Itchgrass: 90
itchgrass; [2]
  Plant response rating, Itchgrass: 60
itchgrass; [3]
  Plant response rating, Itchgrass: 70
itchgrass; [4]
  Plant response rating, Itchgrass: 90
itchgrass; [5]
  Plant response rating, Itchgrass: 95
itchgrass; [6]
  Plant response rating, Itchgrass: 90
itchgrass; [7]
  Plant response rating, Itchgrass: 70
Common purslane; 125 g ai/ha
  Plant response rating, Purslane: 100
Common purslane; 250 g ai/ha
  Plant response rating, Purslane: 100
Common purslane; 500 g ai/ha
  Plant response rating, Purslane: 100
Field bindweed; [1]
  Plant response rating, Bindweed, Field: 70
Field bindweed; [2]
  Plant response rating, Bindweed, Field: 10
Field bindweed; [4]
  Plant response rating, Bindweed, Field: 70
Field bindweed; [5]
  Plant response rating, Bindweed, Field: 80
Field bindweed; [6]
  Plant response rating, Bindweed, Field: 70
Field bindweed; [7]
  Plant response rating, Bindweed, Field: 50
Large crabgrass; [1]
  Plant response rating, Crabgrass, Large: 98
Large crabgrass; [2]
  Plant response rating, Crabgrass, Large: 70
Large crabgrass; [3]
  Plant response rating, Crabgrass, Large: 80
Large crabgrass; [4]
  Plant response rating, Crabgrass, Large: 100
Large crabgrass; [5]
  Plant response rating, Crabgrass, Large: 100
Large crabgrass; [6]
  Plant response rating, Crabgrass, Large: 95
Large crabgrass; [7]
  Plant response rating, Crabgrass, Large: 90
